Data published in patent publication US20060228347A1, “Antitumor agent and dnase” (Susumu SUNAGA and SUNNYVALE COMPANY, priority 2005, published 2006).
Values after ≈ are worked out from the molar mass of the structure shown.

What was measured:
[1] = system: HeLa cell; assay: MTT method, cell proliferation inhibition by cell fractions; type: cell-based; conditions: Homo sapiens
Method: (§1) More particularly, cells for evaluation, i.e., a cancer cell line (for example, an MKN-28 cell or a HeLa cell) and a normal cell (for example, an MRC-5 cell or an HEF cell) are prepared as cell suspensions. An appropriately diluted series (for example, 1/2, 1/4, 1/8, 1/16, and 1/32) of a DNase solution are poured into each well of a microplate. After each cell suspension is further added into each well, the cells are cultivated for a predetermined period (for example, 4 days). After the cultivation, an MTT [3-(4,5-dimethylthiazol-2-yl)-2,5-diphenyltetrazolium bromide; Sigma chemical Co.] solution is added into each well. After an incubation for a predetermined period (for example, at 37° C. for 4 hours), a culture supernatant is removed from each well, and then an MTT formazan elution liquid [acidified isopropanol containing 10% (V/V) Triton X-100] is added into each well. […] The IC50 value is indicated as a dilution of a test liquid or a concentration (for example, μg/mL) of a test drug which can inhibit a proliferation of a control cell (without an antitumor agent) to 50%. When the dilution is high, or when the drug concentration is low, it can be judged that the drug (substance) tested has a high activity.
(§2) As cells for evaluation, the MKN-28 cell and the HeLa cell were used as cancer cell lines, and the MRC-5 cell was used as a normal cell. After each cell line was cultured for 3 days, cells were treated with trypsin, and dispersed cells were washed with PBS by centrifugation. Washed cells were suspended in a Dulbecco's modified Eagle's MEM medium containing 8% fetal calf serum (hereinafter referred to as GM), and counted with a hemocytometer. Each cell suspension was adjusted with the GM to cell densities of 5000 cells/50 μL and 2500 cells/50 μL (cancer cell lines) or 10000 cells/50 μL and 5000 cells/50 μL (MRC-5 cell).
(§3) To each well in a 96-well flat-bottomed plate, diluted series (undiluted, 1/2, 1/4, 1/8, 1/16, and 1/32; 50 μL/well) of each centrifugal supernatant or centrifugal pellet prepared in Example 1 were added. Further, each cell suspension was added to each well, and the plate was incubated at 37° C. in a CO2 incubator. After 3 or 4 days from the beginning of the incubation, 20 μL/well of an MTT solution was added to each well, and the plate was incubated at 37° C. for 3 hours. The culture supernatant was removed from each well, and 100 μL of an MTT formazan elution liquid was added to each well.
(§4) As a control, PBS was used instead of the diluted series of each centrifugal supernatant or centrifugal pellet. For comparison, 5-fold-diluted series (100 μg/mL, 20 μg/mL, 4 μg/mL, 0.8 μg/mL, 0.16 μg/mL, and 0.032 μg/mL) of 5-fluorouracil (5-FU) were used instead of the diluted series of each centrifugal supernatant or centrifugal pellet.
(§5) The IC50 values when the cancer cell line MKN-28 was used as the cell for evaluation and the centrifugal supernatant and the centrifugal pellet derived from the MKN-28 cell were used as the cell fraction are shown in Table 6. Each IC50 value shown in Table 6 (or Tables 7 to 10 described below) is an average of plural (two to four) values. Each IC50 value is shown as a dilution (i.e., relative value) of a test liquid [or a concentration of a test drug (μg/mL for 5-FU)] which can inhibit a proliferation of a control cell (without an antitumor agent) to 50%.

[2] = system: MKN-28 cell; assay: as above; type: cell-based; conditions: Homo sapiens
Method: as §1, §2, §3, §4, §5

[3] = system: MRC-5 cell; assay: as above; type: cell-based; conditions: Homo sapiens
Method: as §1, §2, §3, §4, §5

[4] = system: MKN-28 cell; assay: Appearance of mitotic (round) cells after colcemid treatment; type: cell-based, human
Method: (§6) A synthetic colchicine, colcemid (J. Radiat. Res., 14, 258-270, 1971) was used to prepare the M-phase cell. The optimum conditions for obtaining the living M-phase cell, and the conditions for evaluation the activity of inhibiting a cell proliferation by the MTT method were examined.
(§7) More particularly, cells were cultivated in a 25-cm^2 culture flask (Falcon, 3014, 50 mL) for 3 days. After the mono-layered cells were washed, a growth medium supplemented with 0.025 μg/mL of colcemid (Nakarai, 09356-74) was added, and incubated at 37° C. for 6 hours. After the cells were washed gently, the culture flask was gently shaken to collect cells removed from the bottom of the flask. The collected cells were washed with the medium (GM) by centrifugation to remove colcemid. The washed cells were suspended in the growth medium and incubated.
(§8) The incubated cells were observed under a microscope at intervals of an hour; an appearance of mitotic cells is shown in Table 19. The appearance of mitotic cells was judged by an appearance of round cells as an index. Although almost cultured cells adhere to the glass surface and are thinly spread, mitotic cells become round and tend to leave the glass surface. Therefore, an appearance of round cells which tend to leave the monolayer was used as the index.
(§9) In Table 19, “−” means that the round cells appeared at a percentage of 0% with respect to the whole cells, “±” means that the round cells appeared at a percentage less than 5%, and “+” means that the round cells appeared at a percentage from 5% to less than 30%. The numbers in parentheses of “Round cells/flask” are numbers of positive cells strained by trypan blue.

[5] = system: MRC-5 cell; assay: as above; type: cell-based, human
Method: as §6, §7, §8, §9

## O=c1[nH]cc(F)c(=O)[nH]1 [5-FU, 5-fluorouracil]
[1]; 72 h, Table 7, HeLa (3 days), 2500 cells/well
  IC50: 5 µg/mL (≈ 38.4 µM)
[1]; 72 h, Table 7, HeLa (3 days), 5000 cells/well
  IC50: 7.3 µg/mL (≈ 56.1 µM)
[1]; 72 h, Table 9, 3-day cultivation, 2500 cells/well
  IC50: 7 µg/mL (≈ 53.8 µM)
[1]; 72 h, Table 9, 3-day cultivation, 5000 cells/well
  IC50: 12 µg/mL (≈ 92.3 µM)
[1]; 96 h, Table 7, HeLa (4 days), 2500 cells/well
  IC50: 3.6 µg/mL (≈ 27.7 µM)
[1]; 96 h, Table 7, HeLa (4 days), 5000 cells/well
  IC50: 3.6 µg/mL (≈ 27.7 µM)
[1]; 96 h, Table 10, 4-day cultivation, 2500 cells/well
  IC50: 6.2 µg/mL (≈ 47.7 µM)
[1]; 96 h, Table 10, 4-day cultivation, 5000 cells/well
  IC50: 13 µg/mL (≈ 99.9 µM)
[2]; MKN-28, 72 h, Table 6, MKN (3 days), 2500 cells/well
  IC50: 4.6 µg/mL (≈ 35.4 µM)
[2]; MKN-28, 72 h, Table 6, MKN (3 days), 5000 cells/well
  IC50: 5.9 µg/mL (≈ 45.4 µM)
[2]; MKN-28, 72 h, Table 9, 3-day cultivation, MKN, 2500 cells/well
  IC50: 4.6 µg/mL (≈ 35.4 µM)
[2]; MKN-28, 72 h, Table 9, 3-day cultivation, MKN, 5000 cells/well
  IC50: 6 µg/mL (≈ 46.1 µM)
[2]; MKN-28, 96 h, Table 6, MKN (4 days), 2500 cells/well
  IC50: 3.7 µg/mL (≈ 28.4 µM)
[2]; MKN-28, 96 h, Table 6, MKN (4 days), 5000 cells/well
  IC50: 14.8 µg/mL (≈ 114 µM)
[2]; MKN-28, 96 h, Table 10, 4-day cultivation, MKN, 2500 cells/well
  IC50: 4.7 µg/mL (≈ 36.1 µM)
[2]; MKN-28, 96 h, Table 10, 4-day cultivation, MKN, 5000 cells/well
  IC50: 11.6 µg/mL (≈ 89.2 µM)
[3]; MRC5, 72 h, Table 8, MRC (3 days), 5000 cells/well
  IC50: > 100 µg/mL
[3]; MRC5, 72 h, Table 8, MRC (3 days), 10000 cells/well
  IC50: > 100 µg/mL
[3]; MRC5, 72 h, Table 9, 3-day cultivation, MRC, 5000 cells/well
  IC50: > 100 µg/mL
[3]; MRC5, 72 h, Table 9, 3-day cultivation, MRC, 10000 cells/well
  IC50: > 100 µg/mL
[3]; MRC5, 96 h, Table 8, MRC (4 days), 5000 cells/well
  IC50: 92 µg/mL (≈ 707 µM)
[3]; MRC5, 96 h, Table 8, MRC (4 days), 10000 cells/well
  IC50: > 100 µg/mL
[3]; MRC5, 96 h, Table 10, 4-day cultivation, MRC, 5000 cells/well
  IC50: 92 µg/mL (≈ 707 µM)
[3]; MRC5, 96 h, Table 10, 4-day cultivation, MRC, 10000 cells/well
  IC50: > 100 µg/mL

## CN[C@H]1CCc2cc(OC)c(OC)c(OC)c2-c2ccc(OC)c(=O)cc21 [colcemid]
[4]; MKN-28
  Round cells/flask: 93000
  yield of colcemid-treated cells (number of cells after the treatment/number of cells before the treatment): 1.4%
[4]; MKN-28, 1 hr, 0.025 μg/mL colcemid
  Appearance of round cells: − (the round cells appeared at a percentage of 0% with respect to the whole cells)
[4]; MKN-28, 2 hr
  Appearance of round cells: ± (the round cells appeared at a percentage less than 5%)
[4]; MKN-28, 3 hr
  Appearance of round cells: + (the round cells appeared at a percentage from 5% to less than 30%)
[4]; MKN-28, 4 hr
  Appearance of round cells: + (the round cells appeared at a percentage from 5% to less than 30%)
[4]; MKN-28, 5 hr
  Appearance of round cells: + (the round cells appeared at a percentage from 5% to less than 30%)
[4]; MKN-28, number in parentheses
  Round cells/flask: positive cells strained by trypan blue: 0
[5]; MRC-5
  Round cells/flask: 153000
  yield of colcemid-treated cells (number of cells after the treatment/number of cells before the treatment): 29%
[5]; MRC-5, 1 hr, 0.025 μg/mL colcemid
  Appearance of round cells: − (the round cells appeared at a percentage of 0% with respect to the whole cells)
[5]; MRC-5, 2 hr
  Appearance of round cells: ± (the round cells appeared at a percentage less than 5%)
[5]; MRC-5, 3 hr
  Appearance of round cells: + (the round cells appeared at a percentage from 5% to less than 30%)
[5]; MRC-5, 4 hr
  Appearance of round cells: + (the round cells appeared at a percentage from 5% to less than 30%)
[5]; MRC-5, 5 hr
  Appearance of round cells: + (the round cells appeared at a percentage from 5% to less than 30%)
[5]; MRC-5, number in parentheses
  Round cells/flask: positive cells strained by trypan blue: 0
